Experimental findings from patent US9284541B2, “Methods and compositions for protein labeling using lipoic acid ligases” (Massachusetts Institute of Technology, priority 2007, dated 2016) are described below.

“Also recorded” adds a separate entry of the source.

The target in one data set is T1, E. coli LplA (Escherichia coli, UniProt P32099).
T1 sequence (P32099 2-338 limits assumed): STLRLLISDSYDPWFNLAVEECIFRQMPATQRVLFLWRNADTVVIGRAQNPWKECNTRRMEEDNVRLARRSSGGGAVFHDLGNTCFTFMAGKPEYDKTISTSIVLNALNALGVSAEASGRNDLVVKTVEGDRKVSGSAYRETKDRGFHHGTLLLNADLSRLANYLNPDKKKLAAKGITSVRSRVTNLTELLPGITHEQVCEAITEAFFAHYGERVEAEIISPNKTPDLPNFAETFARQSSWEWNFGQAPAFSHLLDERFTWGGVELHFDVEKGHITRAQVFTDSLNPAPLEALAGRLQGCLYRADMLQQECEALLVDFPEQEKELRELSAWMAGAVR
Nature of the data set: Measurement of LplA-probe ligation kinetics (HPLC). The format is biochemical. The method, then:
To measure the kcat for LplA ligation of lipoic acid to E2p, 50 nM LplA was combined with 200 μM E2p, 750 μM lipoic acid, […], and 2 mM magnesium acetate in 25 mM sodium phosphate pH 7.0. The reaction was initiated with addition of 1 mM ATP to the pre-warmed (30° C.) mixture. The reaction was incubated at 30° C., and 90 μL aliquots were removed every 5 minutes and quenched with 50 mM EDTA (final concentration). Samples were analyzed by C18 reverse-phase HPLC as described in the “Methods” section. Measurements were performed in triplicate. A calibration curve was obtained that correlated the ratio of integrated HPLC peak areas (E2p:E2p-probe) to the actual protein ratio, in order to compensate for differences in the extinction coefficients of E2p and lipoylated E2p. The amount of product obtained at each time point was plotted against time, to obtain the Vmax of the reaction. From this, the kcat value was obtained using the equation Vmax=kcat [E]total.
90 μL aliquots were removed from the 30° C. reactions at 5 minutes intervals, up to 30 minutes, and quenched with 50 mM EDTA (final concentration). Samples were analyzed by HPLC as above. The amount of product obtained at each time point was plotted against time, to obtain the initial velocity for each concentration of azide 7. […] From the Vmax value, kcat was calculated using the equation Vmax=kcat [E]total.

Data set [1] has as its target T2, LplA (Escherichia coli, UniProt P32099). Nature of the data set: In vitro LplA activity assay: probe ligation onto E2p (HPLC). The conditions noted are these: 350 μM probe, 200 μM E2p, 30 minutes. The format is biochemical, E. coli. The method, then:
LplA reactions contained 2 μM LplA, 200 μM E2p, 350 μM probe, 1 mM ATP, 2 mM magnesium acetate, and 25 mM sodium phosphate pH 7.0. Reactions were incubated at 30° C. for 30 minutes, and then quenched with EDTA (final concentration 50 mM). Conversion to product was determined by HPLC on a C18 reverse-phase column with a 40-57% gradient of acetonitrile in water with 0.1% trifluoroacetic acid over 20 minutes (flow rate 1.0 mL/minute). […] Percent conversion to product was calculated from the ratio of the E2p-probe peak area to the sum of (E2p+E2p-probe) peak areas. All measurements were performed in triplicate.

Data set [2] deals with mitochondrial respiration. Kind of data set: Effect of azide 7 on mitochondrial respiration. It is filed as cell-based. Particulars: 24-hour exposure, concentrations less than 750 μM.
Data set [3] has as its target T2, LplA. Kind of data set: HPLC analysis of LplA modification of HP1-peptide fusions; kcat of azide 7 ligation to LAP. The format is biochemical, E. coli. The conditions noted are these: C-terminal fusion to HP1 versus peptide 8.
Procedure: To compare the conversion rates for different peptide substrates, reactions were assembled as follows: 1.5 μM LplA, 150 μM HP1-peptide fusion, 750 μM azide 7, 1 mM ATP, and 2 mM magnesium acetate in 25 mM sodium phosphate pH 7.0. Reactions were incubated at 30° C. for 2 hours, then quenched with 50 mM EDTA (final concentration), and subsequently analyzed by C18 reverse-phase HPLC using a gradient of 30-45% acetonitrile in water with 0.1% trifluoroacetic acid over 20 minutes with a 1 mL/minute flow rate. Retention times for unmodified HP1-peptide fusions ranged from 8-12 minutes, and shifted to 16-21 minutes after ligation to azide 7. Measurements were performed in triplicate. The extent of modification was calculated from the ratio of HP1-peptide-azide 7 peak area to the sum of (HP1-peptide+HP1-peptide-azide 7) peak areas.

As for `O=C(O)CCCC[C@@H]1CCSS1` (racemic) [lipoic acid], the “kcat of LplA-catalyzed ligation to E2p” value on E. coli LplA (30° C., pH 7.0) was 0.253 ± 0.003 s⁻¹.

For the compound `[N-]=[N+]=NCCCCCCCC(=O)O` [azide 7, 8-azidooctanoic acid], the “Kcat relative to the measured Kcat for lipoic acid ligation” value at E. coli LplA (ligation to E2p) was 2.3 fold. At LplA [1], the “incorporation / ligation kinetics by LplA” value is on record as “fastest kinetics; also recorded: best kinetics”. Moreover, the “effect on mitochondrial respiration” value in data set [2] is given as “no effect”. As to “peptide 9: peptide 8 fused to the C-terminal end of HP1 (SEQ ID NO: 9) (DEVLVEIETDKAVLEVP)”, the “drop of lipoylation rate” value with LplA [3] is 5 fold.
